Measurements as given in the supplement of paper PMC13380429.
± gives the standard deviation of the averaged measurements.

Experiments:
Details in all cases: 72 h
HepG2 [1] = assay: relative viability EC50 (midpoint between 100% and the lowest measured viability); higher = less toxic
Vero E6 [2] = assay: as above
U2OS [3] = assay: as above
Caco-2 [4] = assay: as above
Calu-3 [5] = assay: as above
HepG2 [6] = assay: cell viability relative to DMSO; higher = less toxic
Vero E6 [7] = assay: as above
U2OS [8] = assay: as above
Caco-2 [9] = assay: as above
Calu-3 [10] = assay: as above
HepG2 [11] = assay: drug sensitivity score (DSS) for viability; higher = more toxic; extreme values may be limits of the assay
Vero E6 [12] = assay: as above
U2OS [13] = assay: as above
Caco-2 [14] = assay: as above
Calu-3 [15] = assay: as above

| Structure (SMILES) | relative viability EC50 (HepG2 [1]) | relative viability EC50 (Vero E6 [2]) | relative viability EC50 (U2OS [3]) | relative viability EC50 (Caco-2 [4]) | relative viability EC50 (Calu-3 [5]) | cell viability (HepG2 [6]; 1 nM) | cell viability (HepG2 [6]; 10 nM) | cell viability (HepG2 [6]; 100 nM) | cell viability (HepG2 [6]; 1000 nM) | cell viability (HepG2 [6]; 10000 nM) | cell viability (Vero E6 [7]; 1 nM) | cell viability (Vero E6 [7]; 10 nM) | cell viability (Vero E6 [7]; 100 nM) | cell viability (Vero E6 [7]; 1000 nM) | cell viability (Vero E6 [7]; 10000 nM) | cell viability (U2OS [8]; 1 nM) | cell viability (U2OS [8]; 10 nM) | cell viability (U2OS [8]; 100 nM) | cell viability (U2OS [8]; 1000 nM) | cell viability (U2OS [8]; 10000 nM) | cell viability (Caco-2 [9]; 1 nM) | cell viability (Caco-2 [9]; 10 nM) | cell viability (Caco-2 [9]; 100 nM) | cell viability (Caco-2 [9]; 1000 nM) | cell viability (Caco-2 [9]; 10000 nM) | cell viability (Calu-3 [10]; 1 nM) | cell viability (Calu-3 [10]; 10 nM) | cell viability (Calu-3 [10]; 100 nM) | cell viability (Calu-3 [10]; 1000 nM) | cell viability (Calu-3 [10]; 10000 nM) | drug sensitivity score (HepG2 [11]) | drug sensitivity score (Vero E6 [12]) | drug sensitivity score (U2OS [13]) | drug sensitivity score (Caco-2 [14]) | drug sensitivity score (Calu-3 [15]) |
| --- | --- | --- | --- | --- | --- | --- | --- | --- | --- | --- | --- | --- | --- | --- | --- | --- | --- | --- | --- | --- | --- | --- | --- | --- | --- | --- | --- | --- | --- | --- | --- | --- | --- | --- | --- |
| Cc1cccc(-c2[nH]c(C(C)(C)C)nc2-c2ccc3nccnc3c2)n1 | 1.64 µM | > 10 µM | > 10 µM | 2.14 µM | > 10 µM | 101% | 95.2% | 103% | 80.5% | 12.9% | 99.3% | 99.4% | 104% | 98.1% | 81.6% | 96.8% | 101% | 95% | 89.2% | 79% | 104% | 98.1% | 104% | 91.1% | 29.8% | 106% | 104% | 109% | 102% | 87.3% | 7.9 | 0.7 | 1.3 | 5.4 | 0 |
| Cc1ncc(Cl)cc1NCc1ccc(C(=O)N[C@@H](CC2CCCC2)C(=O)NC2CC2)s1 | > 10 µM | > 10 µM | > 10 µM | > 10 µM | > 10 µM | 100% | 102% | 97.5% | 89.7% | 88.2% | 107% | 94.7% | 104% | 98% | 91.6% | 99.5% | 104% | 94.5% | 95% | 90.6% | 99.9% | 104% | 97.5% | 96.3% | 96.6% | 94.7% | 106% | 99.8% | 89.7% | 109% | 0.4 | 0 | 0 | 0 | 0 |
| Cc1noc(NS(=O)(=O)c2cccc3c(N(C)C)cccc23)c1C | > 10 µM | > 10 µM | > 10 µM | > 10 µM | > 10 µM | 99.6% | 96% | 108% | 94.5% | 110% | 103% | 92.8% | 98.3% | 90.5% | 103% | 93.5% | 101% | 100% | 100% | 103% | 80.6% | 103% | 96.7% | 91.7% | 105% | 97.7% | 104% | 95.4% | 97.3% | 103% | 0 | 0 | 0 | 0 | 0 |
| O=C(O)c1ccc(CN2CCC(CN[C@@H]3C[C@H]3c3ccccc3)CC2)cc1 | > 10 µM | > 10 µM | > 10 µM | > 10 µM | > 10 µM | 105% | 93.8% | 104% | 92.5% | 92% | 100% | 103% | 99.2% | 90.9% | 95.2% | 95.9% | 96.8% | 95.8% | 98.3% | 96% | 101% | 108% | 94% | 105% | 102% | 89.3% | 101% | 94.7% | 102% | 103% | 0 | 0 | 0 | 0 | 0 |
| Oc1ccc(-c2nc(-c3ccc(F)cc3)c(-c3ccncc3)[nH]2)cc1 | > 10 µM | > 10 µM | > 10 µM | > 10 µM | > 10 µM | 101% | 103% | 102% | 94% | 83.5% | 97.7% | 100% | 91.1% | 93.4% | 111% | 96.6% | 101% | 94.8% | 98.1% | 89.8% | 88.1% | 104% | 100% | 95% | 91.1% | 87.3% | 106% | 104% | 118% | 91.2% | 0.9 | 0 | 0 | 0 | 0 |
| N[C@@H](C(=O)O)c1ccc(C(=O)O)c(O)c1 (racemic) [4-carboxy-3-hydroxyphenylglycine-(RS)] | > 10 µM | > 10 µM | > 10 µM | > 10 µM | > 10 µM | 99.7 ± 6.4% | 113 ± 12% | 104 ± 6.9% | 107 ± 4% | 98.7 ± 16% | 101.5 ± 0.78% | 98.35 ± 0.49% | 97.35 ± 0.92% | 102 ± 5.4% | 105 ± 12% | 97.1 ± 3% | 99.4 ± 2.1% | 97.8 ± 3.1% | 98.7 ± 4.6% | 105 ± 1.8% | 98.6% | 97.4% | 92.6% | 110% | 103% | 94.7 ± 5.6% | 91.5 ± 6.3% | 95.95 ± 0.35% | 94.5 ± 1.1% | 99.5 ± 2% | 0 | 0 | 0 | 0 | 0 |
| C[C@@]1(O)[C@H](O)[C@@H](CO)O[C@H]1n1cnc2c(NC3CCCC3)nc(Cl)nc21 [2'-MeCCPA] | > 10 µM | > 10 µM | > 10 µM | > 10 µM | > 10 µM | 95.6% | 95.5% | 101% | 97.7% | 96.8% | 105% | 98.7% | 100% | 98.9% | 102% | 96.9% | 100% | 96.8% | 99.6% | 100% | 95.9% | 100% | 102% | 105% | 103% | 93.9% | 98% | 96.5% | 100% | 91.4% | 0 | 0 | 0 | 0 | 0 |
| c1ccc2sc(N3CCN(Cc4ccc5c(c4)OCO5)CC3)nc2c1 [2-[1-(4-piperonyl)piperazinyl]benzothiazole] | > 10 µM | > 10 µM | > 10 µM | > 10 µM | > 10 µM | 98.4% | 108% | 100% | 96% | 103% | 92% | 94.8% | 91.7% | 95.8% | 100% | 97.2% | 98% | 106% | 96.1% | 104% | 103% | 92.2% | 98.9% | 90.3% | 100% | 102% | 92.8% | 103% | 98.6% | 90.5% | 0 | 0 | 0 | 0 | 0 |
| Cc1ncc[nH]1 [2-methylimidazole] | > 10 µM | > 10 µM | > 10 µM | > 10 µM | > 10 µM | 95.3% | 95.7% | 89.7% | 96.2% | 91.5% | 96.2% | 97.8% | 96.1% | 94.9% | 108% | 98.7% | 97.4% | 101% | 97.8% | 99% | 98.7% | 97.4% | 92.6% | 107% | 104% | 96.7% | 97.1% | 112% | 107% | 117% | 0 | 0 | 0 | 0 | 0 |
| CC(=O)OCC1=C(C(=O)O)N2C(=O)[C@@H](N)[C@H]2SC1 [7-aminocephalosporanic-acid] | > 10 µM | > 10 µM | > 10 µM | > 10 µM | > 10 µM | 105% | 117% | 109% | 115% | 99.7% | 97.5% | 100% | 96.4% | 95.5% | 98.8% | 101% | 99% | 100% | 97.8% | 101% | 101% | 106% | 102% | 98.7% | 100% | 116% | 102% | 97.5% | 99.5% | 115% | 0 | 0 | 0 | 0 | 0 |
| O=C(O)c1c2ccccc2cc2ccccc12 [9-anthracenecarboxylic-acid] | > 10 µM | > 10 µM | > 10 µM | > 10 µM | > 10 µM | 101% | 90.5% | 102% | 104% | 102% | 98.4% | 97.1% | 98% | 94.7% | 103% | 100% | 100% | 101% | 101% | 103% | 93.1% | 95.8% | 95% | 100% | 105% | 97.1% | 97.9% | 99.4% | 101% | 96% | 0 | 0 | 0 | 0 | 0 |
| Nc1ccc(-c2nc3ccc(-c4nc5ccc(N)cc5[nH]4)cc3[nH]2)cc1 [Ro-90-7501] |  | > 10 µM | > 10 µM | > 10 µM | > 10 µM | 98.3% | 98.7% | 93.4% | 79.5% | 54.6% | 93.3% | 101% | 89.7% | 98.7% | 113% | 105% | 94.5% | 100% | 98.5% | 100% | 94% | 91.6% | 96.8% | 95.3% | 99.7% | 104% | 105% | 102% | 102% | 97% | 4.5 | 0 | 0 | 0 | 0 |
| COC(=O)c1c(-c2cc(OC)c(OC)c(OC)c2)c2ccnc(OCc3ncccn3)c2c(=O)n1Cc1ccnc(C)c1 [T-0156] |  | > 10 µM | > 10 µM | > 10 µM | > 10 µM |  |  |  |  |  | 96% | 94.4% | 102% | 105% | 109% | 95.6% | 103% | 96.5% | 99.3% | 100% | 96.4% | 93% | 89.6% | 99.9% | 103% | 87% | 96.4% | 90.2% | 98.5% | 101% |  | 0 | 0 | 0 | 0 |
| CN(C)CC(c1ccc(O)cc1)C1(O)CCCCC1 (stereo not drawn) [desvenlafaxine] |  | > 10 µM | > 10 µM | > 10 µM | > 10 µM |  |  |  |  |  | 101% | 97.2% | 97.5% | 92.6% | 94.3% | 99.1% | 99.7% | 96.5% | 97.5% | 94.2% | 105% | 102% | 99.6% | 98.2% | 99.2% | 98.8% | 110% | 97.3% | 109% | 98.7% |  | 0 | 0 | 0 | 0 |
| Cc1cccc(C)c1NC(=O)c1ccccc1C(=O)O [ftaxilide] |  | > 10 µM | > 10 µM | > 10 µM | > 10 µM |  |  |  |  |  | 107% | 102% | 99.8% | 96.3% | 100% | 102% | 105% | 98.5% | 101% | 97.2% | 94.5% | 100% | 102% | 99.8% | 104% | 103% | 106% | 98.6% | 122% | 106% |  | 0 | 0 | 0 | 0 |
